For this test, the system named is smooth muscle cells obtained from the aortas of rats. Nature of the test: Inhibition of the proliferation of smooth muscle cells (3H-thymidine incorporation). As to conditions: semi-maximum inhibition of the thymidine incorporation produced by 10% FCS; rat aortic smooth muscle cells. It is filed as cell-based. On the procedure:
Investigation of the inhibition of the proliferation of smooth muscle cells by the compounds according to the invention
To determine the antiproliferative action of the compounds, smooth muscle cells are used which are obtained from the aortas of rats by the media explant technique [R. Ross, J. Cell, Biol. 50, 172, 1971]. The cells are inoculated into suitable culture dishes, as a rule 96-hole plates, and cultured at 37° C. in 5% CO2 for 2-3 days in medium 199 containing, 7.5% FCS and 7.5% NCS, 2mM L-glutamine and 15 mM HEPES, pH 7.4. The cells are then synchronized for 2-3 days by withdrawal of serum and then stimulated into growth using […] or other factors. Test compounds are simultaneously added. After 16-20 hours, 1 μCi ^3 H-thymidine is added and after a further 4 hours the incorporation of this substance into the TCA-precipitable DNA of the cells is determined. To determine the IC50 values, the active compound concentration is calculated which, on sequential dilution of the active compound, causes semi-maximum inhibition of the thymidine incorporation produced by 10% FCS.

The values below come from patent US5834481A, “Heterotricyclically substituted phenyl-cyclohexane-carboxylic acid derivatives” (Bayer Aktiengesellschaft, priority 1993, dated 1998).

Structures are written as SMILES.

In general, IC50 refers to the point on the concentration scale where inhibition reaches its midpoint. Higher therefore signals weaker potency.

In the case of `Cc1cc(C)c2c3c(n(Cc4ccc(C5CCCCC5C(=O)N[C@H](CO)c5ccccc5)cc4)c2n1)CCCC3` (single isomer, unassigned) [Example 27], the midpoint of inhibition, the IC50, lay at 580 nM.

In turn, `O=C(N[C@H](CO)c1ccccc1)C1CCCCC1c1ccc(Cn2c3ccccc3c3ccncc32)cc1` (single isomer, unassigned) [Example 30] gave an IC50 of 0.1 nM.

Regarding `O=C(N[C@H](CO)c1ccccc1)C1CCCCC1c1ccc(Cn2c3c(c4cccnc42)CCCCC3)cc1` (single isomer, unassigned) [Example 50], the 50% inhibitory concentration (IC50) was 0.9 nM.

`O=C(N[C@H](CO)c1ccccc1)C1CCCCC1c1ccc(Cn2c3ccccc3c3cccnc32)cc1` (single isomer, unassigned) [Example 32] gave a concentration for half-maximal inhibition (IC50) of 2 nM.
